Test results from the kinase profiling compilation of Christmann-Franck et al. (2016).

Experiments:
Test in all cases: KINOMEscan competition binding
Settings in all cases: compound 10.0 µM
[1] = test system: ABL1 (human), P00519 [M351T]
[2] = target: AKT2 (human) (UniProt P31751)
[3] = target: AKT3 (human) (UniProt Q9Y243)
[4] = target: CDC42BPG (human) (UniProt Q6DT37)
[5] = target: CSF1R (human) (UniProt P07333)
[6] = target: CSNK1E (human) (UniProt P49674)
[7] = target: DDR2 (human) (UniProt Q16832)
Sequence of DDR2 (human) (Q16832 whole entry, looked up): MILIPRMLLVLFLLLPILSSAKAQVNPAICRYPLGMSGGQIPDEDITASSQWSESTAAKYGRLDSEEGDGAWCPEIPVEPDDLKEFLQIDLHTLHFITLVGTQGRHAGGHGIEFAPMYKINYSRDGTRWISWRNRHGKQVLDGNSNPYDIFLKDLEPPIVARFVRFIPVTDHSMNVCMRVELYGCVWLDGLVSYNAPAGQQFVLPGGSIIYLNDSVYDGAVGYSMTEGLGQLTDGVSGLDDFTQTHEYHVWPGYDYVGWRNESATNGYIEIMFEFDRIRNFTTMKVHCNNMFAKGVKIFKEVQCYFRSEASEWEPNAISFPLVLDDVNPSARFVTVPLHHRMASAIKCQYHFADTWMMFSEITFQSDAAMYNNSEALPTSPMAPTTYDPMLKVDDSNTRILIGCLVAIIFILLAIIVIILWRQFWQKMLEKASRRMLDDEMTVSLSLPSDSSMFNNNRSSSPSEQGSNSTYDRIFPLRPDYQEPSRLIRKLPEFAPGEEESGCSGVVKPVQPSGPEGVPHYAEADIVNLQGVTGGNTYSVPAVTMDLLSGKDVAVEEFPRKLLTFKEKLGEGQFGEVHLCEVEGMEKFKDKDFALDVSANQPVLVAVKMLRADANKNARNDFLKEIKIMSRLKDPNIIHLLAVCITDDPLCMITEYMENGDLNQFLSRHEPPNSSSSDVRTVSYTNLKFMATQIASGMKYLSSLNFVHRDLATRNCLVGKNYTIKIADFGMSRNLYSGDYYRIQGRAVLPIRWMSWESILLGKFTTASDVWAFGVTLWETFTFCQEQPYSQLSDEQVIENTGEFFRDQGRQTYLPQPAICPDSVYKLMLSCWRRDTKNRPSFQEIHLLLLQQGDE

[8] = test system: EGFR (human), P00533 [752-759 del]
[9] = test system: EGFR (human), P00533 [L858R]
[10] = test system: EIF2AK4 KD2 (human), Q9P2K8 [S808G]
Sequence of EIF2AK4 KD2 (human), Q9P2K8 [S808G] (Q9P2K8 whole entry S808G, looked up): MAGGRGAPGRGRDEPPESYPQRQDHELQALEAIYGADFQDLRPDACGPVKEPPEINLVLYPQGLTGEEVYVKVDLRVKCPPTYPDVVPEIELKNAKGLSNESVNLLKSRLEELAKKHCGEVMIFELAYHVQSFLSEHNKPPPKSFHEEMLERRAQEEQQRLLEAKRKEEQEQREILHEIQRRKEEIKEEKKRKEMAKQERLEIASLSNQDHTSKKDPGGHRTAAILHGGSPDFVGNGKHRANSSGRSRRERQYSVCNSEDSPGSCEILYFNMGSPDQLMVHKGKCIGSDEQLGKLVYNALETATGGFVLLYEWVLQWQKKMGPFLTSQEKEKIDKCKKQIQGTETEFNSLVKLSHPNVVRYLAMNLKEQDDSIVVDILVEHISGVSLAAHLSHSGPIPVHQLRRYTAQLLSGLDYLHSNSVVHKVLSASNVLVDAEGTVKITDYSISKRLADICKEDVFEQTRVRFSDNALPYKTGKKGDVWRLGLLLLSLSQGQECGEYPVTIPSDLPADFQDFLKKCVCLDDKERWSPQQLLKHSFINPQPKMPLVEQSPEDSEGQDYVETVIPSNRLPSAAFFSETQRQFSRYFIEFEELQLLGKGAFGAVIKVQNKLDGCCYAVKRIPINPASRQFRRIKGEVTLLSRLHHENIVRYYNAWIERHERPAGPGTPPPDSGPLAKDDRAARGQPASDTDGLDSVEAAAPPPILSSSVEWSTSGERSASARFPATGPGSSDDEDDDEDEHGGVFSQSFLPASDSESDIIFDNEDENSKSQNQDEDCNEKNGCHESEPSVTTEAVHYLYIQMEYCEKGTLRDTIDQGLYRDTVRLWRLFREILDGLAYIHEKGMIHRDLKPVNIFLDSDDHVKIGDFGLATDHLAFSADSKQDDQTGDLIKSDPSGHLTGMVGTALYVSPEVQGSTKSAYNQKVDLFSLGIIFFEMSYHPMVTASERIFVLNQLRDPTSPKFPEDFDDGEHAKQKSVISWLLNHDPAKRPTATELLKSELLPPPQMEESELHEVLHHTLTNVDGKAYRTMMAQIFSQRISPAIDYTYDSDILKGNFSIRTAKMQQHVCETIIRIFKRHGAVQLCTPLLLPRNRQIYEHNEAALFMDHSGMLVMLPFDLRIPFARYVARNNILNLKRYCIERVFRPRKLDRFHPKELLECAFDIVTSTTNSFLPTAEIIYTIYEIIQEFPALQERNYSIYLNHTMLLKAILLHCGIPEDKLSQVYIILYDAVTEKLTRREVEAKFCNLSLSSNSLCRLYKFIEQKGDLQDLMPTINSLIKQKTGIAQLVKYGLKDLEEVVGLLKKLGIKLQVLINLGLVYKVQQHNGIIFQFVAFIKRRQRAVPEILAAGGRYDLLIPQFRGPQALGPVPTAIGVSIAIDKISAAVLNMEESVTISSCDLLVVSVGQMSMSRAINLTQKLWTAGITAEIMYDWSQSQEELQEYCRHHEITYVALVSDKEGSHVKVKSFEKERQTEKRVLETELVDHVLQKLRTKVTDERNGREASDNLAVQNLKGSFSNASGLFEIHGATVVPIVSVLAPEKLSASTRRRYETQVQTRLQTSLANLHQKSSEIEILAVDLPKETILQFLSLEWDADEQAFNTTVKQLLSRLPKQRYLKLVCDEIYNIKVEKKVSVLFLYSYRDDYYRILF

[11] = target: EPHA4 (human) (UniProt P54764)
[12] = test system: FGFR3 (human), P22607 [G697C]
[13] = target: FRK (human) (UniProt P42685)
[14] = target: JAK3 JH1 catalytic (human) (UniProt P52333)
[15] = test system: KIT (human), P10721 [V559D/V654A]
[16] = target: MAP3K11 (human) (UniProt Q16584)
[17] = target: MAP3K3 (human) (UniProt Q99759)
Sequence of MAP3K3 (human) (Q99759 whole entry, looked up): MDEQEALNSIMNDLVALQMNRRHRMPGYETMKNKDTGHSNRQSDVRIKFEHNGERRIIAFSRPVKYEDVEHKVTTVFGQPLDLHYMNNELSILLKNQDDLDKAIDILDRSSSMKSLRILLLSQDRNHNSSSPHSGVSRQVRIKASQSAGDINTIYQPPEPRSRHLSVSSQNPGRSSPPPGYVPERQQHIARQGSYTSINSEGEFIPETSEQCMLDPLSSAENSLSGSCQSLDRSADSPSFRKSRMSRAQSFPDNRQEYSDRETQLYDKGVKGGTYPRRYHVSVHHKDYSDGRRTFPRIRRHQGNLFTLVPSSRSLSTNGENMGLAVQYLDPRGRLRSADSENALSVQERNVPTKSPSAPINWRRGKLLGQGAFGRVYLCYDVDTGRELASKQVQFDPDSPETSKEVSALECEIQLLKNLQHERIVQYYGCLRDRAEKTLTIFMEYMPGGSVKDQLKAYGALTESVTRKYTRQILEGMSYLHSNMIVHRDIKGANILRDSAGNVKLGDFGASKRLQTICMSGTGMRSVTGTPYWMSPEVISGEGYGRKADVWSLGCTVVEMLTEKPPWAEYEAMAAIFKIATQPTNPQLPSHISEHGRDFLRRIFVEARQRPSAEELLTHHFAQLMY

[18] = target: MAP4K4 (human) (UniProt O95819)
[19] = target: MAPK12 (human) (UniProt P53778)
[20] = target: MINK1 (human) (UniProt Q8N4C8)
[21] = target: MYLK (human) (UniProt Q15746)
[22] = target: NTRK3 (human) (UniProt Q16288)
[23] = target: NUAK1 (human) (UniProt O60285)
[24] = target: NUAK2 (human) (UniProt Q9H093)
[25] = target: PDPK1 (human) (UniProt O15530)
[26] = target: PHKG1 (human) (UniProt Q16816)
[27] = target: PIK3CA (human) (UniProt P42336)
[28] = target: PIM1 (human) (UniProt P11309)
[29] = target: PKN1 (human) (UniProt Q16512)
[30] = target: PLK1 (human) (UniProt P53350)
[31] = target: PLK4 (human) (UniProt O00444)
[32] = target: PRKD1 (human) (UniProt Q15139)
[33] = target: ROS1 (human) (UniProt P08922)
[34] = target: SRC (human) (UniProt P12931)
[35] = target: STK36 (human) (UniProt Q9NRP7)
[36] = target: TEC (human) (UniProt P42680)
[37] = target: TNIK (human) (UniProt Q9UKE5)
[38] = target: WEE2 (human) (UniProt P0C1S8)
[39] = target: ALK (human) (UniProt Q9UM73)
[40] = target: CAMK1D (human) (UniProt Q8IU85)
Sequence of CAMK1D (human) (Q8IU85 whole entry, looked up): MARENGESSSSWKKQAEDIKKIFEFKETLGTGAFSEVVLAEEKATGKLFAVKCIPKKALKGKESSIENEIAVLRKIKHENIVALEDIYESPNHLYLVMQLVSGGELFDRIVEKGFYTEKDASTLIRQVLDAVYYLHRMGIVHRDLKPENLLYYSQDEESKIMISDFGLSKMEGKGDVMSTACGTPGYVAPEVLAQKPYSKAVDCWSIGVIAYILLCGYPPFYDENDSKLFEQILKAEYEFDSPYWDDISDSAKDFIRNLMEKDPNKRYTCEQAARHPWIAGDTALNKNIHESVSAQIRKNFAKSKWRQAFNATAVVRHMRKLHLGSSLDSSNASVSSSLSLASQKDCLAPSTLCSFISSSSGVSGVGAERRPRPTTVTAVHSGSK

[41] = target: CDK15 (human) (UniProt Q96Q40)
Sequence of CDK15 (human) (Q96Q40 whole entry, looked up): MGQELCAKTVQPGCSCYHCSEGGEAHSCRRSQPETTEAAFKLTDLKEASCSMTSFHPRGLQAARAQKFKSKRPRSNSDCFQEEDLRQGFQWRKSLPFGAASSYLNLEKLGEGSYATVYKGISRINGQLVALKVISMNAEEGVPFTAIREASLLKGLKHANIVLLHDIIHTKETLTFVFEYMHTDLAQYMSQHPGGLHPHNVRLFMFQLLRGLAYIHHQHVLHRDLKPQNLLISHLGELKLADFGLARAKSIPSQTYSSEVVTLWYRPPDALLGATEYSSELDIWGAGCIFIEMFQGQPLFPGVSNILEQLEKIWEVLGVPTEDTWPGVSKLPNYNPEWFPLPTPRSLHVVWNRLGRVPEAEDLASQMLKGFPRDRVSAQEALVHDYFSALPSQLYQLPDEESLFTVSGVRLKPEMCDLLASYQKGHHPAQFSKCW

[42] = test system: RET (human), P07949 [M918T]

Sequence of AKT3 (human) (Q9Y243 whole entry, looked up): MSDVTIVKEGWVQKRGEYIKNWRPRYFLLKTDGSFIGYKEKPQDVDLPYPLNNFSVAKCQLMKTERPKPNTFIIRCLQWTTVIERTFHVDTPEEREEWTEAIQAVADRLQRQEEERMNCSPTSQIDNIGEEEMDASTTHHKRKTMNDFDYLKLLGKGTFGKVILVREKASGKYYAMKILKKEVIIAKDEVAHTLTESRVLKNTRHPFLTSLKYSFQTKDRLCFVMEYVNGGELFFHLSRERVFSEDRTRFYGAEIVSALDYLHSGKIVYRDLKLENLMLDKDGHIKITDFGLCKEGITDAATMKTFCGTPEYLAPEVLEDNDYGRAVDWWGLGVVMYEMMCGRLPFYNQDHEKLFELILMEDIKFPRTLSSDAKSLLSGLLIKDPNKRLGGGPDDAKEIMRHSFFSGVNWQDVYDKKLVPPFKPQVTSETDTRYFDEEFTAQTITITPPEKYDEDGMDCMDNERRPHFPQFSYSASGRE
Sequence of AKT2 (human) (P31751 whole entry, looked up): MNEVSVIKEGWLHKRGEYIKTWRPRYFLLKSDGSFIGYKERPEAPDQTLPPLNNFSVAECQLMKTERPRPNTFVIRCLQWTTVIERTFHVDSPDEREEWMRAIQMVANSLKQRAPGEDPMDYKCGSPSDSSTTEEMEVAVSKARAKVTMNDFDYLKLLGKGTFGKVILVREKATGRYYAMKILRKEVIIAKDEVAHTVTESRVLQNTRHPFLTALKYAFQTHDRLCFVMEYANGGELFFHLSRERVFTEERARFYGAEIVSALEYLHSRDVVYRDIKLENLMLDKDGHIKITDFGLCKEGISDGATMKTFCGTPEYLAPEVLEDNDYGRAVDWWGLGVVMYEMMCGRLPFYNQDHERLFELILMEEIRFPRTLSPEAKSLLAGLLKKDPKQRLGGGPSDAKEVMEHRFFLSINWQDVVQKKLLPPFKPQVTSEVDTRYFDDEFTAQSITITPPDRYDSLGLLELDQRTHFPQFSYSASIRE

COc1cc(N2CCC(N3CCN(C)CC3)CC2)ccc1Nc1ncc(Cl)c(Nc2ccccc2S(=O)(=O)C(C)C)n1
kinase still bound, per cent of control [1]: 5%
kinase still bound, per cent of control [2]: 40%
kinase still bound, per cent of control [3]: 40%
kinase still bound, per cent of control [4]: 23%
kinase still bound, per cent of control [5]: 0%
kinase still bound, per cent of control [6]: 40%
kinase still bound, per cent of control [7]: 14%
kinase still bound, per cent of control [8]: 1.4%
kinase still bound, per cent of control [9]: 0.1%
kinase still bound, per cent of control [10]: 4.5%
kinase still bound, per cent of control [11]: 30%
kinase still bound, per cent of control [12]: 0.25%
kinase still bound, per cent of control [13]: 0.2%
kinase still bound, per cent of control [14]: 2%
kinase still bound, per cent of control [15]: 7.4%
kinase still bound, per cent of control [16]: 20%
kinase still bound, per cent of control [17]: 2.8%
kinase still bound, per cent of control [18]: 5.4%
kinase still bound, per cent of control [19]: 40%
kinase still bound, per cent of control [20]: 40%
kinase still bound, per cent of control [21]: 0.5%
kinase still bound, per cent of control [22]: 40%
kinase still bound, per cent of control [23]: 0.75%
kinase still bound, per cent of control [24]: 0%
kinase still bound, per cent of control [25]: 28%
kinase still bound, per cent of control [26]: 0.1%
kinase still bound, per cent of control [27]: 40%
kinase still bound, per cent of control [28]: 40%
kinase still bound, per cent of control [29]: 0.5%
kinase still bound, per cent of control [30]: 0.1%
kinase still bound, per cent of control [31]: 0%
kinase still bound, per cent of control [32]: 1%
kinase still bound, per cent of control [33]: 0.45%
kinase still bound, per cent of control [34]: 0.2%
kinase still bound, per cent of control [35]: 5.8%
kinase still bound, per cent of control [36]: 0.7%
kinase still bound, per cent of control [37]: 12%
kinase still bound, per cent of control [38]: 40%

CCN1CCN(Cc2ccc(NC(=O)c3ccc(C)c(Oc4ccnc5[nH]ccc45)c3)cc2C(F)(F)F)CC1
kinase still bound, per cent of control [1]: 0.35%
kinase still bound, per cent of control [39]: 0.55%
kinase still bound, per cent of control [40]: 6.2%
kinase still bound, per cent of control [41]: 6%
kinase still bound, per cent of control [5]: 0%
kinase still bound, per cent of control [7]: 5.1%
kinase still bound, per cent of control [8]: 4.6%
kinase still bound, per cent of control [9]: 14%
kinase still bound, per cent of control [11]: 5.8%
kinase still bound, per cent of control [12]: 16%
kinase still bound, per cent of control [13]: 0.7%
kinase still bound, per cent of control [14]: 11%
kinase still bound, per cent of control [15]: 2.7%
kinase still bound, per cent of control [17]: 12%
kinase still bound, per cent of control [18]: 0%
kinase still bound, per cent of control [19]: 0%
kinase still bound, per cent of control [22]: 3.8%
kinase still bound, per cent of control [42]: 0%
kinase still bound, per cent of control [34]: 0.2%
kinase still bound, per cent of control [35]: 0.2%
kinase still bound, per cent of control [37]: 8.2%

CCN1CCN(Cc2ccc(NC(=O)c3ccc(C)c(/C=C/c4cnc(Nc5cc(N6CCNCC6)nc(C)n5)cn4)c3)cc2C(F)(F)F)CC1
kinase still bound, per cent of control [1]: 3.8%
kinase still bound, per cent of control [2]: 46%
kinase still bound, per cent of control [3]: 81%
kinase still bound, per cent of control [39]: 100%
kinase still bound, per cent of control [40]: 100%
kinase still bound, per cent of control [4]: 100%
kinase still bound, per cent of control [41]: 53%
kinase still bound, per cent of control [5]: 1.1%
kinase still bound, per cent of control [6]: 100%
kinase still bound, per cent of control [7]: 0%
kinase still bound, per cent of control [8]: 6.2%
kinase still bound, per cent of control [9]: 3.4%
kinase still bound, per cent of control [10]: 0.8%
kinase still bound, per cent of control [11]: 16%
kinase still bound, per cent of control [12]: 23%
kinase still bound, per cent of control [13]: 7%
kinase still bound, per cent of control [14]: 3.2%
kinase still bound, per cent of control [15]: 3.7%
kinase still bound, per cent of control [16]: 10%
kinase still bound, per cent of control [17]: 0.3%
kinase still bound, per cent of control [18]: 0.1%
kinase still bound, per cent of control [19]: 39%
kinase still bound, per cent of control [20]: 4.3%
kinase still bound, per cent of control [21]: 67%
kinase still bound, per cent of control [22]: 1%
kinase still bound, per cent of control [23]: 98%
kinase still bound, per cent of control [24]: 81%
kinase still bound, per cent of control [25]: 100%
kinase still bound, per cent of control [26]: 100%
kinase still bound, per cent of control [27]: 92%
kinase still bound, per cent of control [28]: 76%
kinase still bound, per cent of control [29]: 100%
kinase still bound, per cent of control [30]: 100%
kinase still bound, per cent of control [31]: 92%
kinase still bound, per cent of control [32]: 90%
kinase still bound, per cent of control [42]: 0.2%
kinase still bound, per cent of control [33]: 100%
kinase still bound, per cent of control [34]: 0.25%
kinase still bound, per cent of control [35]: 0.1%
kinase still bound, per cent of control [36]: 24%
kinase still bound, per cent of control [37]: 1.9%
kinase still bound, per cent of control [38]: 83%

CCOc1cc(N2CCC(N3CCCCC3)CC2)ccc1Nc1nc(Nc2ccccc2S(=O)(=O)C(C)C)c2cn[nH]c2n1
kinase still bound, per cent of control [1]: 53%
kinase still bound, per cent of control [2]: 100%
kinase still bound, per cent of control [3]: 100%
kinase still bound, per cent of control [39]: 34%
kinase still bound, per cent of control [40]: 1%
kinase still bound, per cent of control [4]: 100%
kinase still bound, per cent of control [41]: 100%
kinase still bound, per cent of control [5]: 99%
kinase still bound, per cent of control [6]: 74%
kinase still bound, per cent of control [7]: 93%
kinase still bound, per cent of control [8]: 49%
kinase still bound, per cent of control [9]: 6.6%
kinase still bound, per cent of control [10]: 100%
kinase still bound, per cent of control [11]: 100%
kinase still bound, per cent of control [12]: 97%
kinase still bound, per cent of control [13]: 18%
kinase still bound, per cent of control [14]: 84%
kinase still bound, per cent of control [15]: 100%
kinase still bound, per cent of control [16]: 100%
kinase still bound, per cent of control [17]: 69%
kinase still bound, per cent of control [18]: 100%
kinase still bound, per cent of control [19]: 100%
kinase still bound, per cent of control [20]: 71%
kinase still bound, per cent of control [21]: 0.9%
kinase still bound, per cent of control [22]: 54%
kinase still bound, per cent of control [23]: 100%
kinase still bound, per cent of control [24]: 27%
kinase still bound, per cent of control [25]: 100%
kinase still bound, per cent of control [26]: 24%
kinase still bound, per cent of control [27]: 99%
kinase still bound, per cent of control [28]: 100%
kinase still bound, per cent of control [29]: 100%
kinase still bound, per cent of control [30]: 47%
kinase still bound, per cent of control [31]: 74%
kinase still bound, per cent of control [32]: 73%
kinase still bound, per cent of control [42]: 100%
kinase still bound, per cent of control [33]: 5.8%
kinase still bound, per cent of control [34]: 69%
kinase still bound, per cent of control [35]: 100%
kinase still bound, per cent of control [36]: 98%
kinase still bound, per cent of control [37]: 87%
kinase still bound, per cent of control [38]: 100%
